Each structure is given as a SMILES string. Calls of active or inactive are those of the source.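 The calls were made as follows: active = fitted half-maximal concentration for a cytotoxic signal drop no higher than ten times the top valid dose tested; inconclusive = flat curve between -70 and -30 percent, or an unreliable fit; inactive = flat within 30 percent, signal rise, or potency beyond limit.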

A short description of this test: viability loss in HeLa cells – cell-based, 24 h, cherry-picked samples, cytotoxicity control, dose response (AID 504726).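 Also: 0% = DMSO neutral controls and -100% = mitoxantrone positive controls.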 The settings on record: HeLa viability, CellTiter-Glo ATP luminescence, 24 h; at 35 µM (top of the series).
For `CCc1cc[n+](-c2nc([O-])sc2C=O)cc1`, the activity change, negative = cytotoxicity was 0.003% (inactive). The result for `CCOc1ccc2noc3c2c1C(=O)c1ccccc1-3` reads -3.75% (inactive); that for `COc1ccc(-c2n[nH]c(=S)n2-c2ccc(C)cc2)cc1`, 4.29% (inactive); that for `Cn1cc(C(=O)c2ccc(Cl)cc2Cl)cc1C(=O)N/N=C(\N)COc1ccccc1`, -7.82% (inactive). The value for `O=C(NC1(O)C(=O)c2ccccc2C1=O)c1c(Cl)cccc1Cl` was -4.52% (inactive); that for `CN(C)C(=O)c1ccc(NC(=O)COC(=O)C2(c3ccccc3)CCCC2)cc1` was -4.12% (inactive); that for `Cc1nc2c(=O)[nH]c(=S)[nH]c2[nH]c1=O` was 1.86% (inactive).

Take `Cc1ccc(NC(=O)CN2C(=O)N/C(=C/c3cc(C)n(-c4ccc(C(=O)O)cc4)c3C)C2=O)cc1`: the activity change, negative = cytotoxicity was -5.94% (inactive). Turning to `CCc1nnc(NC(=O)c2cccc(S(=O)(=O)N(C)c3ccccc3)c2)s1`, the activity change, negative = cytotoxicity is -7.23% (inactive). The result for `CCOC(=O)c1ccc[n+](CC(=O)c2ccc(OC)cc2)c1` reads -1.73% (inactive). With `Cc1c(C)n(Cc2ccccc2)c2ncnc(Cl)c12`, the activity change, negative = cytotoxicity was -17.6% (inactive). As for `O=S(=O)(O)c1cc(Cl)cc(N=Nc2ccc(O)cc2O)c1O`, the activity change, negative = cytotoxicity was -12.1% (inactive). The value for `CN(C)/C=C1\C=C2C(=O)c3ccccc3N2C1=O` was -8.99% (inactive). As for `O=C(COc1ccccc1Cc1ccccc1)NCCCN1CCOCC1`, the activity change, negative = cytotoxicity was -9.39% (inactive).

Consider `Cc1ccccc1NC(=O)CN1C(=O)N/C(=C\c2cccn2-c2cccc(C(=O)O)c2)C1=O`, for which the activity change, negative = cytotoxicity is -8.21% (inactive).

In the case of `S=c1c2c(nc3nc[nH]n13)CCC2`, the activity change, negative = cytotoxicity was -7.9% (inactive).

Take `Nc1nnc(CC(=O)N/N=C/c2cc([N+](=O)[O-])cc(Br)c2O)s1`: the activity change, negative = cytotoxicity was -8.04% (inactive). The value for `COc1cc(NC(=O)c2ccc(CNc3c(N4CCCC4)c(=O)c3=O)cc2)cc(OC)c1OC` was -7.17% (inactive). The value for `CSc1nc(SC(C)C(=O)O)c2c3c(sc2n1)COC(C)(C)C3` (stereo unspecified) was -9.35% (inactive).

Consider `CCn1c(CN2CCCCC2)nc2cc(S(=O)(=O)N3CCCCC3)ccc21`, for which the activity change, negative = cytotoxicity was -13.7% (inactive). The result for `C/C(=N/NC(=O)c1cc(O)c(O)c(O)c1)c1ccc([N+](=O)[O-])cc1` reads -1.35% (inactive); that for `COc1ccc(NC(=O)NS(=O)(=O)c2ccc(C)cc2)cn1`, -5.07% (inactive); that for `Brc1c(CSc2nncc3ccccc23)nc2ccccn12`, -1.12% (inactive). The value for `O=[N+]([O-])c1cc(-n2cnnn2)ccc1N1CCC(Cc2ccccc2)CC1` was -9.35% (inactive); that for `COc1ccc(C(=O)N/N=C/c2ccc(OC)c(COc3ccccc3)c2)cc1` was -5.44% (inactive); that for `CN(CC(=O)Nc1ccc(N2CCOCC2)cc1)C(=O)CSc1ccc(Br)cc1` was 0.641% (inactive). The value for `O=C(NCC1CCCO1)c1cccc(S(=O)(=O)N(Cc2ccccc2)c2ccccc2)c1` (stereo unspecified) was -6.52% (inactive); that for `Cn1c2ccccc2c2cnn(CC(=O)Nc3cccc(F)c3)c(=O)c21` was -9.52% (inactive); that for `N=C1/C(=C\c2ccc(Br)o2)C(=O)N=C2SC(CC(=O)N3CCOCC3)=NN12` was 1.98% (inactive). As for `Cc1cc2nc(SCCN3CCOCC3)[nH]c2cc1C`, the activity change, negative = cytotoxicity was -23.1% (inactive).

As to `O=S(=O)(O)c1cccc2cccc(Nc3ccccc3)c12`, the activity change, negative = cytotoxicity was -4.31% (inactive). The result for `Cc1ccc(NC(=O)CN2C(=O)N/C(=C/c3cccn3-c3ccc(C(=O)O)cc3)C2=O)cc1` reads -4.45% (inactive); that for `CC(C)C(=O)N1CCN(c2ccccc2NC(=S)NC(=O)c2ccco2)CC1`, -12.9% (inactive). The result for `COc1ccc(-c2nc(C(=O)O)cs2)cc1OC` reads -5.71% (inactive).

For `Cc1n[nH]c(C)c1N1C(=O)c2cccc3c(N4CCCCCC4)ccc(c23)C1=O`, the activity change, negative = cytotoxicity is -15.8% (inactive). Regarding `Cc1cccc(C)c1NC(=O)CSc1nnc(-c2ccco2)c(-c2ccco2)n1`, the activity change, negative = cytotoxicity is -6.45% (inactive). The result for `Cc1c(Cl)cccc1NS(=O)(=O)c1ccc2c(c1)C1C=CCC1C(c1ccc(C(=O)O)cc1)N2` (stereo unspecified) reads -10.8% (inactive); that for `CCN(CC)C(=O)c1ccc2c(c1)C1C=CCC1C(C(=O)O)N2` (stereo unspecified), -7.76% (inactive).

As to `COc1cc2c(cc1OC)-c1cc3ccc4c(c3c[n+]1CC2)OCO4`, the activity change, negative = cytotoxicity was -12.1% (inactive). The result for `O=C(Nc1ccc(Br)cn1)c1cccc2ccccc12` reads -12.4% (inactive); that for `O=C(CN1CCN(C(=O)CNC(=O)c2ccc3c(c2)OCO3)CC1)Nc1ccc(F)cc1`, -9.87% (inactive). Take `CC(C(=O)Nc1ccccc1)N1C(=O)c2ccccc2C1=O` (stereo unspecified): the activity change, negative = cytotoxicity is -8.7% (inactive). The value for `O=C(O)c1ccccc1NS(=O)(=O)c1ccc(N/N=C/c2ccc(O)c(O)c2)c([N+](=O)[O-])c1` was -10.9% (inactive); that for `O=C(O)c1ccc2c(c1)[C@@H]1C=CC[C@@H]1[C@H](c1ccccn1)N2` was -31.8% (inactive); that for `Cc1[nH][nH]c(=O)c1C(c1ccc(-c2ccc(Cl)c(C(=O)O)c2)o1)c1c(C)[nH][nH]c1=O` was -3.88% (inactive). The value for `CCOC(=O)C1CCCN(C(=O)C2c3ccccc3Oc3ccccc32)C1` (stereo unspecified) was -6.62% (inactive); that for `O=c1[nH][nH]cc1C=Nc1ccc(Cl)cc1Cl` was -7.34% (inactive).

As for `Nc1cccc(N2C(=O)c3cccc4c(N)ccc(c34)C2=O)c1`, the activity change, negative = cytotoxicity is 6.74% (inactive). For the compound `Nc1ccc2c(O)cc(S(=O)(=O)O)cc2c1`, the activity change, negative = cytotoxicity was -11% (inactive). The value for `Oc1ccc2ccc3cccc[n+]3c2c1` was -13.8% (inactive); that for `CC(C)Cc1nc(SCC(=O)Nc2nnc(CC(C)C)s2)n[nH]1` was -15% (inactive); that for `CN1CCN(CCCNC(=O)c2cc3c(-c4ccc(Cl)cc4)nn(C)c3s2)CC1` was -18.2% (inactive). For the compound `CCCc1nc(NCc2ccccn2)c2nnn(Cc3ccccc3F)c2n1`, the activity change, negative = cytotoxicity was -9.25% (inactive). The result for `COc1ccc(-c2cc(C(=O)N(C)CCc3ccc(OC)c(OC)c3)c3ccccc3n2)cc1` reads -7.16% (inactive). The value for `O=C1/C(=C/c2ccco2)SC(=S)N1c1cccnc1` was -6.8% (inactive); that for `Cc1ccccc1NC(=S)NC(C)CCc1ccccc1` (stereo unspecified) was -9.6% (inactive). The result for `Cc1nn(CC(=O)c2ccc(Br)s2)c(C)c1[N+](=O)[O-]` reads -2.98% (inactive).

`Oc1ccc2nnc3c(Br)cnn3c2c1`: the activity change, negative = cytotoxicity was -12.1% (inactive). For the compound `C=CC1=C(C(=O)O)N2C(=O)[C@@H](NC(=O)/C(=N/OCC(=O)O)c3csc(N)n3)[C@H]2SC1`, the activity change, negative = cytotoxicity is -13.9% (inactive). Take `COc1cccc2c1NC(C(=O)O)C1CC=CC21` (stereo unspecified): the activity change, negative = cytotoxicity is -12.8% (inactive). For `CC(C)Cn1c(N)c(C(=O)CSc2nnc(-c3ccco3)n2C)c(=O)n(C)c1=O`, the activity change, negative = cytotoxicity is -1.08% (inactive).

For the compound `COc1ccc(OC)c(N2C(=O)NC(=O)/C(=C\c3ccc([N+](=O)[O-])s3)C2=O)c1`, the activity change, negative = cytotoxicity was -3.62% (inactive). The result for `CN(c1ccc(OCC(=O)OCC(=O)c2c(N)n(C)c(=O)n(C)c2=O)cc1)S(=O)(=O)c1ccc2ccccc2c1` reads 3.95% (inactive); that for `CCn1c(O)c(N=Nc2cccc(S(=O)(=O)N3CCOCC3)c2)c(=O)n(CC)c1=S`, 7.72% (inactive). The value for `O=C1c2ccccc2C(Nc2ccc3c(c2)OCCO3)N1Cc1ccc2c(c1)OCO2` (stereo unspecified) was -13.3% (inactive); that for `O=C(O)c1cccc(-n2cccc2/C=C2/NC(=O)N(c3ccc(Cl)cc3)C2=O)c1` was 0.035% (inactive). The result for `Cc1cccc(-c2nsc(SCC(=O)Nc3nccs3)n2)c1` reads -0.205% (inactive); that for `COc1cc(CN2CC(=O)N(c3cc(Cl)ccc3C)C2=S)cc(OC)c1OC`, -7.61% (inactive). For `CCOC(=O)C1C2C=CC3(CN(c4cccc(Cl)c4)C(=O)C13)O2` (stereo unspecified), the activity change, negative = cytotoxicity was -5.58% (inactive). Regarding `Cc1ccc(S(=O)(=O)Nc2ccc(Br)cc2C(NCC(=O)O)c2ccccc2)cc1` (stereo unspecified), the activity change, negative = cytotoxicity was 0.422% (inactive). The value for `NC(=O)C1(N2CCCCC2)CCN(Cc2ccc(Br)cc2)CC1` was -2.98% (inactive). Take `CCc1ccc[n+](-c2[nH]c(=O)sc2/C=N/NC([S-])=Nc2ccccc2)c1`: the activity change, negative = cytotoxicity was -14.2% (inactive).

`COc1ccc(N=C2SC(CC(=O)Nc3ccccc3)C(=O)N2Cc2ccco2)cc1` (stereo unspecified): the activity change, negative = cytotoxicity was -17.3% (inactive). The value for `Cc1cc(C(F)(F)F)c2c(N)c(C(=O)Nc3cc(C)on3)sc2n1` was -0.48% (inactive); that for `CC(C)c1ccc(CNc2ccc([N+](=O)[O-])cn2)cc1` was -10.7% (inactive). The value for `CN(C)/C=N/c1nc2nccc(-c3ccc(Cl)cc3)n2n1` was -3.67% (inactive).

The values are drawn from PubChem BioAssay AID504726 (Broad Institute, 2011).
